Results on five compounds are retold here after US4992470A, “Method of enhancing immune response of mammals” (Iowa State University Research Foundation, Inc., priority 1990, dated 1991).

Data set [1] is described as follows: Stability of HMB (and KIC) in the rumen: incubation in diluted rumen fluid. Type of data set: in vitro ADME, steer. Here is the method: Rumen fluid was collected from a fistulated steer. After filtration and dilution (1:4) with an artificial saliva, 25ml of the solution was added to 50ml plastic tubes. Each tube was fitted with a one-way valve to allow gases to escape while not allowing air into the tube. Each tube was then gassed with C02 and incubated at 39° C. After 30 min a solution of KIC or HMB was added to the tube in concentrations to simulate what would be present in the rumen of an animal consuming .05% of the diet as KIC or HMB. It was estimated that a 50uM concentration would be attained in this case. At timed intervals 50ul samples of this rumen fluid were taken and analyzed for KIC and HMB.

The subject of data set [2] is lymphocytes. The experiment in a line: In vitro effects of leucine or leucine metabolites on PHA-stimulated lymphocyte blastogenesis (3H-thymidine incorporation). Type of data set: cell-based, bovine. The conditions noted are these: for activation at 1000 µM: Bos taurus, Lymphocyte, 72 h, final concentration 1 mM, PHA stimulated, read-out: % Change from No Additive, in vitro lymphocyte blastogenesis (Mean Percent Change, SEM). Here is the method:
Lymphocyte Blastogenesis Determinations. Blood collections, lymphocyte isolation and blastogenesis assays were performed on isolated bovine cells by using a 3-d culture procedure as described previously in Kuhlman, et al. (1988), J. Nutr., 118:1564-1569.
Isolated lymphocytes were exposed to 1 and 10 mM Leu and KIC and the metabolites isovalarate, β-hydroxy-β-methyl butyrate (HMB), β-hydroxy-β-methyl glutarate, butyrate, acetate, acetone, acetoacetate, and β-hydroxy butyrate (BOHB). The cells were then stimulated with the mitogen phytohemagglutinin, and incorporation of ^3 H-thymidine into the DNA of the dividing lymphocytes was measured.
Leucine and Leucine Metabolites. Most of the compounds listed in Table B were purchased from Sigma Chemical Company, St. Louis, MO. KIC was purchased from SOBAC (Paris, France), HMB was synthesized as described in Example 1, and the calcium salt of HMB was purified by crystallization in 95% ethanol. The calcium salt was converted to a sodium salt form and used in subsequent assays. The pH of all compounds was adjusted to approximately 7.3. Compounds were passed through a 0.2-um filter assembly to assure sterility.
For orientation: Dividing cells build labelled thymidine or BrdU into new DNA.

The conditions of data set [3]: rat feeding studies; cited from earlier work.
For data set [4] the following is noted: cited from earlier work.
Data set [5] relates to T lymphocytes. The conditions noted are these: U.S. Pat. No. 4,835,185; cited from earlier work.
For data set [6] the following is noted: U.S. Pat. No. 4,835,185; cited from earlier work.
The nature of data set [7]: Hygroscopicity of HMB salts. Type of data set: physicochemical. Conditions: compared with Ca-HMB.

Molecules are shown by their SMILES.

In the case of `CC(C)CC(=O)C(=O)O` [KIC, α-keto-isocaproic acid], the “Stability in rumen environment (in words)” value in data set [1] is reported as “rapidly destroyed by the rumen bacteria”. Moreover, the “KIC / HMB in rumen fluid” value in data set [1] (0 min after addition, rumen fluid diluted 1:4, 39° C., initial concentration of KIC was estimated) is 30 µM; in data set [1] (15 min after addition, rumen fluid, 39° C.), 15 µM; in data set [1] (30 min after addition, rumen fluid, 39° C.), 4 µM; in data set [1] (60 min after addition, rumen fluid, 39° C.) it was 2 µM; in data set [1] (240 min after addition, rumen fluid, 39° C.), 2 µM; in data set [1] (480 min after addition, rumen fluid, 39° C.) it was 1 µM. Also, the “Direct effect on the immune system (in words)” value in data set [2] was “have no effect on he immune system directly”. In data set [2], the “Effect on blastogenesis (in words)” value is given as “had no effects on blastogenesis”. The activation at 1000 µM in data set [2] is -3 ± 7%. Further, the “Amount of KIC required to replace leucine” value in data set [3] was “two to three times as much KIC as the nutritionally required amount of leucine”. In addition, in data set [4] (U.S. Pat. Nos. 4,760,090 and 4,760,531), the “Cholesterol in meat, milk and eggs (in words)” value is “cholesterol reduction in meat, milk and eggs”. In addition, in data set [4] (lactating domestic animals, U.S. Pat. No. 4,758,593), the “Milk production (in words)” value is recorded as “the quantity of milk produced may be increased”. Further, the “Egg production (in words)” value in data set [4] (laying chickens, U.S. Pat. No. 4,760,531) was “can also sometimes be increased”. The “Wool production (in words)” value in data set [4] (mature sheep, U.S. Pat. No. 4,760,090) is “the amount of wool produced may also be increased”. Besides, the “Weight gain and/or feed efficiencies (in words)” value in data set [4] (milligram amounts of KIC, U.S. Pat. Nos. 4,760,090 and 4,883,817) was “some increases in the rates of weight gain and/or feed efficiencies”. Further, the “Blastogenesis function (in words)” value in data set [5] was “activating the blastogenesis function of the immune systems”. Further, the “Plasma cortisol levels (in words)” value in data set [6] is reported as “will usually decrease plasma cortisol levels”.
In the case of `CC(C)C[C@H](N)C(=O)O` [Leucine, L-leucine], in data set [2], the “Direct effect on the immune system (in words)” value is on record as “have no effect on he immune system directly”, the “Effect on blastogenesis (in words)” value is listed as “tended to suppress blastogenesis” and the activation at 1000 µM is -12 ± 6%.
For the compound `CC(C)(O)CC(=O)O` [Na-HMB], the “Hygroscopicity (in words)” value in data set [7] was “more hydroscopic than Ca-HMB”.
Consider `CC(O)(CC(=O)O)CC(=O)O` [β-hydroxy-β-methyl glutarate], for which, in data set [2], the “Effect on blastogenesis (in words)” value is reported as “increased blastogenesis slightly” and the activation at 1000 µM amounted to 28%.
Consider `CC(O)CC(=O)O` (stereo not drawn) [β-hydroxybutyrate, β-hydroxy butyrate], for which, in data set [2], the “Effect on blastogenesis (in words)” value is “increased blastogenesis slightly” and the activation at 1000 µM came to 25%.
